Test results as given in paper PMC9783881, “Synthesis and Preclinical Evaluation of Small-Molecule Prostate-Specific Membrane Antigen-Targeted Abiraterone Conjugate” (Molecules, 2022).
Where two headings read alike, the source gives them in different places.

What was measured:
[1] = test system: PSMA; parameters: method as in PMID 33822606; conditions: PSMA ligand; cited from earlier work
[2] = test system: PC-3; parameters: method as in PMID 29310026; conditions: PC-3 cell line; cited from earlier work
[3] = test system: 22Rv1 cells; assay: Cell cycle analysis; type: cell-based, human
Protocol: Cell cycle was analyzed in 22Rv1 cells fixed in 70% ethanol with Muse® cell cycle kit. The fixation lasted overnight at −20 °C. Then, cells were collected by centrifugation at 4000 rpm for 10 min and washed with PBS. The cells were resuspended with Muse® Cell Cycle reagent and incubated for 30 min at room temperature in the dark; then, they were counted.

[4] = test system: 22Rv1; assay: Single cell ROS measurement with Pt-nanoelectrodes, 22Rv1; type: cell-based, human; conditions: 22Rv1, 1 h incubation, IC50 concentration
Protocol: (§1) Commercially available, disk-shaped carbon nanoelectrodes isolated in quartz (ICAPPIC Limited, London, UK) with diameters of 60–100 nm were used to prepare Pt nanoelectrodes for the amperometric detection of intracellular ROS level. Preparation of Pt-nanoelectrodes has been described in detail previously.
(§2) Briefly, a disk-shaped carbon nanoelectrode was etched in a 0.1 M NaOH, 10 mM KCl solution for 20–40 cycles of 10 seconds (from 0 to +2200 mV) to create nanocavities. Electrochemical deposition of platinum in nanocavities was achieved by cycling from 0 to −800 mV with a scan rate of 200 mV s^−1 for 8 to 10 cycles in 2 mM H2PtCl6 solution in 0.1 M hydrochloric acid. […]
(§3) The setup for amperometric measurements included a PC that was connected to a system consisting of an ADC–DAC converter Axon Digidata 1550B (Axon Instruments, Burlingame, CA, USA) and patch-clamp amplifier MultiClamp 700B (Axon Instruments, USA). […] The potential difference between the Pt-nanoelectrode and the reference electrode was recorded with the pClamp 11 software suite (Molecular Devices, Silicon Valley, CA, USA) and processed with Origin 2018 software.
(§4) PC-3 (2.0 × 10^5)/22Rv1 (3.5 × 10^5) cells were seeded in 35 mm Petri dishes, incubated under the conditions described above, and then treated for 24 h. […] Untreated cells were used as a control, which was evaluated at the beginning and at the end of the experiment. […]

[5] = Cytotoxicity on human adult dermal fibroblasts, MTT-test; type: cell-based; conditions: human, human adult dermal fibroblasts (HDFa); HDFa, 72 h, MTT
Protocol: Human adult dermal fibroblasts (HDFa). (ATCC) were propagated in DMEM medium (Paneco) supplemented with 10% fetal calf serum (Gibco) and 1% pemicillin/streptomycin in a 5% CO2 atmosphere at 37 °C. Cytotoxicity of PSMA-Abi and AbiAc in fibroblasts were studied using MTT-test. The cells in the exponential growth phase were trypsinized, counted, and seeded at a density of 5000 cells/well in 96-well plate. Cells were incubated with both tested agents at the designated concentrations (0.4–100 μM) for 72 h; then, each well was treated with 20 μL MTT solution in PBS (5 mg/mL) and cells were incubated at least for 3 h, and formazan was dissolved in DMSO. The absorbance was measured at […] and 620 nm using Thermofischer Scientific Multiscan FC. The values for each point were calculated from 6 wells.

[6] = test system: 22Rv1 prostate cancer subcutaneous xenograft; assay: 22Rv1 human tumor xenograft mouse model; type: in vivo, Balb/c nude mice; conditions: 22Rv1 xenografts
Protocol: Male, 6–8 week old Balb/c nude mice with body weight range of 20–22 g were purchased from N.N.Blokhin Cancer Research Center. Animals were kept in plastic cages equipped with lids with feeding recesses, air filters, and feed dividers at 2–3 mice per cage.
Mice were injected subcutaneously in the right and left flanks with 1 × 10^7 22Rv1 cells in RPMI-1640 medium 0.2 mL supplemented with 0.2 mL Corning Matrigel® matrix (Corning, NY, USA) in a total volume of 400 μL. When the average size of the tumors reached ~100 mm^3, mice were randomly divided into three groups, with five mice per group, including a vehicle group (1% starch paste) and two treatment groups: PSMA-Abi 500 mg/kg/day and AbiAc 200 mg/kg/day for 14 days. The drugs were administered orally, and all compounds were formulated with 1% starch paste. Following the treatment, the primary tumor size was measured twice weekly with a micro-caliper, and the tumor volume was calculated using the formula: Volume = π/6 × length × width × height. Treatment outcome was based on percentage of tumor growth inhibition (%TGI), defined as the percent difference between the median tumor volumes (MTVs) of mice in the treated and control groups. Percent TGI was calculated using the following formula: %TGI = [1 − (MTV treatment group/MTV control)] 100%. All data are presented as means ± SD. Statistical analyses of in vivo research were performed using SPSS Statistics V. 22.0, comparing continuous variables by non-parametrical Mann–Whitney U. * p ≤ 0.05 was considered as significant in comparison with the control.

[7] = test system: PC-3; assay: Single cell ROS measurement with Pt-nanoelectrodes, PC-3; type: cell-based, human; conditions: PC-3, 1 h incubation, IC50 concentration
Protocol: as §1, §2, §3, §4

[8] = mouse, in vivo; cited from earlier work
[9] = test system: 22Rv1; assay: Cytotoxicity (CC50) on 22Rv1 cells; type: cell-based; conditions: Homo sapiens, 22Rv1, read-out: CC50, 22Rv1
Protocol: The in vitro efficacy study of the PSMA-Abi conjugate included an assessment of its cytotoxic potential towards prostate cancer cell cultures (Table 1). […] Thus, we observed an increase in the efficacy of the conjugate towards the PSMA-expressing line. Additionally, an evaluation in a non-tumor model was performed. The toxicity of both compounds was evaluated on human adult dermal fibroblasts (HDFa); both of the agents in the tested concentrations (0.4–100 µM) were non-toxic for human fibroblasts.
22Rv1 and PC-3 cells were received from the MISIS collection of cell lines (less than ten passages from ATCC stock). All cells were cultured in humidified 37 °C incubators with 5% CO2. All cell lines were tested for the absence of mycoplasma. 22Rv1, androgen-responsive PSMA-positive human prostate carcinoma cells, were cultured in RPMI 1640 media (Gibco) with 10% FBS (Gibco), 1× GlutaMax (Gibco), and 1× Penicillin-Streptomycin (10,000 U/mL, Gibco). PC-3, PSMA-negative human prostate cancer cells, were cultured in DMEM/F12 media (Gibco) with 10% FBS (Gibco), 1× GlutaMax (Gibco), and 1× Penicillin-Streptomycin (10,000 U/mL, Gibco).

[10] = test system: PSA level; parameters: method as in PMID 22995653; conditions: cited from earlier work
[11] = oral x14, PSMA-Abi 500, AbiAc 200 mg/kg/day

[N-]=[N+]=NCCCNC(=O)[C@H](Cc1ccc(O)cc1)NC(=O)[C@H](Cc1ccccc1)NC(=O)CCC(=O)NCCCCCC(=O)N(CCCC[C@H](NC(=O)N[C@@H](CCC(=O)O)C(=O)O)C(=O)O)Cc1cccc(Cl)c1 [PSMA ligand 1]
IC50 [1]: 9 ± 3 nM

CC(=O)O[C@H]1CC[C@@]2(C)C(=CC[C@@H]3[C@@H]2CC[C@]2(C)C(c4cccnc4)=CC[C@@H]32)C1 [AbiAc, abiraterone acetate, reference compound]
CC50 [2]: 5.9 ± 0.8 µM | S cells ([3]; 22Rv1): unaffected | level of G0/G1 cells ([3]; 22Rv1, with increasing concentration): increased | percentage of 22Rv1 cells in the G2/M phase ([3]; with increasing concentration, compared to control cells): decreased | ROS (hydrogen peroxide) level in single cells [4]: significantly increased compared to the control | CC50 at 72 h [5]: > 100 µM | TGImax (tumor growth inhibition) ([6]; oral x14, PSMA-Abi 500 mg/kg/day, AbiAc 200 mg/kg/day, after the end of treatment): 78% | TGI, day 15 after start of the treatment [6, 11]: 78% | TGI, day 18 after start of the treatment [6, 11]: 72% | TGI, day 22 after start of the treatment [6, 11]: 69% | Tumor volume (M+SE), day 15 [6, 11]: 547±64 mm3 | Tumor volume (M+SE), day 18 [6, 11]: 811±72 mm3 | Tumor volume (M+SE), day 22 [6, 11]: 997±110 mm3 | Tumor volume (M+SE), day 0 ([6]; start of treatment): 91±20 mm3 | ROS (hydrogen peroxide) level in single cells [7]: significantly increased compared to the control | LD50 [8]: 800 mg/kg | CC50 [9]: 22.7 ± 3.3 µM

C[C@]12CC[C@H](O)CC1=CC[C@@H]1[C@@H]2CC[C@]2(C)C(c3cccnc3)=CC[C@@H]12 [abiraterone]
patients with PSA level decreased by more than 90% ([10]; chemotherapy-naïve patients): 40% | patients with PSA level decreased by more than 50% ([10]; patients after ketoconazole therapy): 33% | patients with PSA level decreased by more than 50% ([10]; patients who had not previously received chemotherapy): 85%
